Legend:
[1] = test system: mRNA expressed from the genes (A) to (D) in rat liver; assay: Behavior of genes (mRNA expression level, oligo-DNA microarray) in rat liver after 28-day oral administration; type: in vivo; details: mRNA vs vehicle control group
In short: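 Oral gavage, once daily × 28 days; male F344 SPF rats, 5 wk, n=4/group; vehicle controls given equal solvent volume. Liver excised day 28, total RNA purified. Significance: ≥1.5× or ≤1/1.5 of vehicle, direction concordant with other carcinogens.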

liver = details: classification of the substance (Cr+/Cr−); cited from earlier work
rodent = details: classification of the substance (C+/C−); cited from earlier work
[2] = classification of the substance (M+/M−); cited from earlier work
[3] = gene group (A), Unigene No. Rn.167075
[4] = gene group (C), Unigene No. Rn.120914

Structure (SMILES): ClC(Cl)=C(Cl)Cl [TS066, Tetrachloroethylene]
- Behavior of gene caused by administration of chemical substance, Gene No. 4846 ([1]; gene group (A), Unigene No. Rn.144554): −
- Behavior of gene caused by administration of chemical substance, Gene No. 2026 [1, 3]: −
- Behavior of gene caused by administration of chemical substance, Gene No. 4218 [1, 3]: −
- Behavior of gene caused by administration of chemical substance, Gene No. 6182 ([1]; gene group (A), Unigene No. Rn.5834): +
- Behavior of gene caused by administration of chemical substance, Gene No. 5600 ([1]; gene group (A), Unigene No. Rn.9836): −
- Behavior of gene caused by administration of chemical substance, Gene No. 1494 ([1]; gene group (B), Unigene No. Rn.1430): −
- Behavior of gene caused by administration of chemical substance, Gene No. 2045 ([1]; gene group (B), Unigene No. Rn.19329): +
- Behavior of gene caused by administration of chemical substance, Gene No. 2203 ([1]; gene group (B), Unigene No. Rn.21240): −
- Behavior of gene caused by administration of chemical substance, Gene No. 533 ([1]; gene group (C), Unigene No. Rn.106184): +
- Behavior of gene caused by administration of chemical substance, Gene No. 725 ([1]; gene group (C), Unigene No. Rn.108075): −
- Behavior of gene caused by administration of chemical substance, Gene No. 1163 ([1]; gene group (C), Unigene No. Rn.11766): −
- Behavior of gene caused by administration of chemical substance, Gene No. 4973 ([1]; gene group (C), Unigene No. Rn.118529): −
- Behavior of gene caused by administration of chemical substance, Gene No. 4095 ([1]; gene group (C), Unigene No. Rn.119024): −
- Behavior of gene caused by administration of chemical substance, Gene No. 1334 [1, 4]: −
- Behavior of gene caused by administration of chemical substance, Gene No. 6620 [1, 4]: −
- Behavior of gene caused by administration of chemical substance, Gene No. 6303 ([1]; gene group (C), Unigene No. Rn.123063): −
- Behavior of gene caused by administration of chemical substance, Gene No. 5878 ([1]; gene group (C), Unigene No. Rn.143213): −
- Behavior of gene caused by administration of chemical substance, Gene No. 1131 ([1]; gene group (C), Unigene No. Rn.144946): −
- Behavior of gene caused by administration of chemical substance, Gene No. 1562 ([1]; gene group (C), Unigene No. Rn.14744): −
- Behavior of gene caused by administration of chemical substance, Gene No. 1741 ([1]; gene group (C), Unigene No. Rn.1647): −
- Behavior of gene caused by administration of chemical substance, Gene No. 893 ([1]; gene group (C), Unigene No. Rn.164817): −
- Behavior of gene caused by administration of chemical substance, Gene No. 6026 ([1]; gene group (C), Unigene No. Rn.167685): −
- Behavior of gene caused by administration of chemical substance, Gene No. 154 ([1]; gene group (C), Unigene No. Rn.185941): −
- Behavior of gene caused by administration of chemical substance, Gene No. 1993 ([1]; gene group (C), Unigene No. Rn.18728): −
- Behavior of gene caused by administration of chemical substance, Gene No. 813 ([1]; gene group (C), Unigene No. Rn.201760): −
- Behavior of gene caused by administration of chemical substance, Gene No. 2494 ([1]; gene group (C), Unigene No. Rn.23969): −
- Behavior of gene caused by administration of chemical substance, Gene No. 2546 ([1]; gene group (C), Unigene No. Rn.24561): −
- Behavior of gene caused by administration of chemical substance, Gene No. 3776 ([1]; gene group (C), Unigene No. Rn.43232): −
- Behavior of gene caused by administration of chemical substance, Gene No. 3929 ([1]; gene group (C), Unigene No. Rn.4620): −
- Behavior of gene caused by administration of chemical substance, Gene No. 1119 ([1]; gene group (C), Unigene No. Rn.9757): −
- Behavior of gene caused by administration of chemical substance, Gene No. 6742 ([1]; gene group (C), Unigene No. Rn.9779): −
- Behavior of gene caused by administration of chemical substance, Gene No. 5634 ([1]; gene group (C), Unigene No. Rn.9862): −
- Behavior of gene caused by administration of chemical substance, Gene No. 5726 ([1]; gene group (D), Unigene No. Rn.9939): −
- Liver carcinogenicity (liver): Cr−
- Carcinogenicity (rodent): C+
- Mutagenicity by Ames test [2]: M−
